Data published in US8455475B2 (Gruenenthal GmbH, priority 2009, dated 2013).

How the values were obtained:
[1] = target: T1, rat B1R (bradykinin receptor 1) (Rattus norvegicus, UniProt P97583); test: FLIPR Ca2+ assay (Fluo-4) on CHO K1 cells stably transfected with the B1R gene of the rat (rB1R cells): % inhibition at 10 μM / IC50, agonist Des-Arg9-bradykinin; format: cell-based; details: CHO-K1, rat B1R
T1 construct: expressed in transfected cells; host or cells: CHO K1 cells
T1 sequence (P97583 1-337): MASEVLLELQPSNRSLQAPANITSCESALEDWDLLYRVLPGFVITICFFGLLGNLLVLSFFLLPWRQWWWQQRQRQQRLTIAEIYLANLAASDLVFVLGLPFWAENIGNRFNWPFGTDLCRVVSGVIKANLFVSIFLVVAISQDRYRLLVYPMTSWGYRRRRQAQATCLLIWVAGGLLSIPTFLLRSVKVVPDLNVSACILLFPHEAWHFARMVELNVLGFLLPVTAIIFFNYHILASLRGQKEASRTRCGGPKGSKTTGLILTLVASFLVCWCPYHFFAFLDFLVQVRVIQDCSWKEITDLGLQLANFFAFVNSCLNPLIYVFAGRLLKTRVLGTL
Summary of the method: (§1)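 Antagonism is measured as the drop in peak Fluo-4 Ca2+ signal when the EC80 agonist follows 10–20 min compound exposure. The single-point screen uses 10 μM; IC50 uses several concentrations. Values are given as % of maximal achievable inhibition.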

[2] = target: T2, human B1R (bradykinin receptor 1) (Homo sapiens, UniProt P46663); test: FLIPR Ca2+ assay (Fluo-4) on CHO K1 cells stably transfected with the human B1R gene (hB1R cells): % inhibition at 10 μM / IC50, agonist Lys-Des-Arg9-bradykinin; format: cell-based; details: CHO-K1, human B1R
T2 construct: expressed in transfected cells; host or cells: CHO K1 cells
T2 sequence (P46663 1-353): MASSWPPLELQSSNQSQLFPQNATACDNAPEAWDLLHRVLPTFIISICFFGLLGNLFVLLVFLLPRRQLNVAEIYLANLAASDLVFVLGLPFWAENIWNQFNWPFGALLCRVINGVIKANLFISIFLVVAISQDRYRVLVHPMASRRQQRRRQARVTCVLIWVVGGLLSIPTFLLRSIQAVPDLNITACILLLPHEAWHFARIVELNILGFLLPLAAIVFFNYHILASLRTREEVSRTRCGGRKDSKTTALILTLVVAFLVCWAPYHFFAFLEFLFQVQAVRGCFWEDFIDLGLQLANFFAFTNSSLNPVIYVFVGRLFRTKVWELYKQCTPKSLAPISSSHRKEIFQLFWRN
Summary of the method: as §1

| SMILES | inhibition at 10 µM [1] [%] | inhibition at 10 µM [2] [%] |
| --- | --- | --- |
| O=C(NC1CCc2ccc(C(=O)N3CCC4(CC3)CCN(c3ccncc3)C4)cc21)c1cccc(Cl)c1Cl (stereo not shown) [IND_CC-267, 2,3-Dichloro-N-[6-(2-pyridin-4-yl-2,8-diazaspiro[4.5]decane-8-carbonyl)-2,3-dihydro-1H-inden-1-yl]-benzamide] | 106 | 86 |
| CN(C(=O)c1sccc1Cl)C1CCc2ccc(C(=O)N3CCC4(CC3)CCN(c3ccncc3)CC4)cc21 (stereo not shown) [Ind_CC-016, 3-chloro-N-methyl-N-[6-(9-pyridin-4-yl-3,9-diazaspiro[5.5]undecane-3-carbonyl)-2,3-dihydro-1H-inden-1-yl]-thiophene-2-carboxylic acid amide] | 102 | 100 |
| O=C(NC1CCc2ccc(C(=O)N3CCC4(CC3)CCN(c3ccc(C(F)(F)F)cc3)CC4)cc21)c1cc(Cl)ccc1Cl (stereo not shown) [IND_CC-209, 2,5-Dichloro-N-[6-[9-[4-(trifluoromethyl)-phenyl]-3,9-diazaspiro[5.5]undecane-3-carbonyl]-2,3-dihydro-1H-inden-1-yl]-benzamide] | 102 | 20 |
| O=C(NC1CCc2ccc(C(=O)N3CCC4(CCN(c5ccncc5)CC4)C3)cc21)c1cc(Cl)ccc1Cl (stereo not shown) [IND_CC-245, 2,5-Dichloro-N-[6-(8-pyridin-4-yl-2,8-diazaspiro[4.5]decane-2-carbonyl)-2,3-dihydro-1H-inden-1-yl]-benzamide] | 101 | 100 |
| CC1(C)CC(NC(=O)c2cc(Cl)ccc2Cl)c2cc(C(=O)N3CCC4(CC3)CCN(c3ccncc3)CC4)ccc21 (stereo not shown) [IND_CC-244, 2,5-Dichloro-N-[3,3-dimethyl-6-(3-pyridin-4-yl-3,9-diazaspiro[5.5]undecane-9-carbonyl)-1,2-dihydro-inden-1-yl]-benzamide] | 103 | 99 |
| O=C(NC1CCc2ccc(C(=O)N3CCC4(CC3)CCN(c3cccnc3)CC4)cc21)c1sccc1Cl (stereo not shown) [Ind_CC-102, 3-chloro-N-[6-(9-pyridin-3-yl-3,9-diazaspiro[5.5]undecane-3-carbonyl)-2,3-dihydro-1H-inden-1-yl]-thiophene-2-carboxylic acid amide] | 100 | 87 |
| CC1(C)CC(NC(=O)c2sccc2Cl)c2cc(C(=O)N3CCC4(CC3)CCN(c3ccncc3)CC4)ccc21 (stereo not shown) [Ind_CC-055, 3-chloro-N-[3,3-dimethyl-6-(9-pyridin-4-yl-3,9-diazaspiro[5.5]undecane-3-carbonyl)-1,2-dihydro-inden-1-yl]-thiophene-2-carboxylic acid amide] | 102 | 99 |
| O=C(c1ccc2c(c1)C(NS(=O)(=O)CCc1ccccc1Cl)CC2)N1CCC2(CC1)CCN(c1ccncc1)CC2 (stereo not shown) [IND_CC-241, 2-(2-Chlorophenyl)-N-[6-(9-pyridin-4-yl-3,9-diazaspiro[5.5]undecane-3-carbonyl)-2,3-dihydro-1H-inden-1-yl]-ethanesulfonic acid amide] | 101 | 95 |
| O=C(/C=C/c1ccccc1Cl)NC1CCc2ccc(C(=O)N3CCC4(CCN(c5ccncc5)CC4)C3)cc21 (stereo not shown) [Ind_CC-083, (E)-3-(2-chlorophenyl)-N-[6-(8-pyridin-4-yl-2,8-diazaspiro[4.5]decane-2-carbonyl)-2,3-dihydro-1H-inden-1-yl]-acrylamide] | 85 | 90 |
| O=C(NC1CCc2ccc(C(=O)N3CCC4(CCN(c5ccncc5)CC4)C3)cc21)c1cccc(Cl)c1Cl (stereo not shown) [IND_CC-284, 2,3-Dichloro-N-[6-(8-pyridin-4-yl-2,8-diazaspiro[4.5]decane-2-carbonyl)-2,3-dihydro-1H-inden-1-yl]-benzamide] | 107 | 100 |
| O=C(NC1CCc2ccc(C(=O)N3CCC4(CC3)CCN(c3ccncc3)C4)cc21)c1cc(C(F)(F)F)ccc1Cl (stereo not shown) [IND_CC-218, 2-Chloro-N-[6-(2-pyridin-4-yl-2,8-diazaspiro[4.5]decane-8-carbonyl)-2,3-dihydro-1H-inden-1-yl]-5-(trifluoromethyl)-benzamide] | 103 | 94 |
| O=C(c1ccc2c(c1)C(N(C(=O)c1ccccc1Cl)C1CC1)CC2)N1CCC2(CC1)CCN(c1ccncc1)CC2 (stereo not shown) [Ind_CC-113, 2-chloro-N-cyclopropyl-N-[6-(9-pyridin-4-yl-3,9-diazaspiro[5.5]undecane-3-carbonyl)-2,3-dihydro-1H-inden-1-yl]-benzamide] | 100 | 98 |
| CN(C(=O)c1ccccc1Cl)C1CCc2ccc(C(=O)N3CCC4(CCN(c5ccncc5)CC4)C3)cc21 (stereo not shown) [Ind_CC-111, 2-chloro-N-methyl-N-[6-(8-pyridin-4-yl-2,8-diazaspiro[4.5]decane-2-carbonyl)-2,3-dihydro-1H-inden-1-yl]-benzamide] | 101 | 100 |

Next, values leading:

| inhibition at 10 µM [1] [%] | inhibition at 10 µM [2] [%] | SMILES |
| --- | --- | --- |
| 100 | 100 | O=C(c1ccc2c(c1)[C@H](NS(=O)(=O)c1c(Cl)cccc1Cl)CC2)N1CCC2(CCN(c3ccncc3)CC2)C1 [Example H-119, 2,6-Dichloro-N-[(1R)-6-(8-pyridin-4-yl-3,8-diazaspiro[4.5]decane-3-carbonyl)-2,3-dihydro-1H-inden-1-yl]-benzenesulfonic acid amide] |
| 104 | 100 | O=C(N[C@@H]1CCc2ccc(C(=O)N3CCC4(CC3)CCN(c3ccncc3)C4)cc21)c1ccccc1Cl [Example H-91, 2-Chloro-N-[(1R)-6-(3-pyridin-4-yl-3,8-diazaspiro[4.5]decane-8-carbonyl)-2,3-dihydro-1H-inden-1-yl]-benzamide] |
| 101 | 99 | CC1(C)Cc2ccc(C(=O)N3CCC4(CCN(c5ccncc5)CC4)C3)cc2C1NC(=O)c1ccccc1Cl (stereo not shown) [Example H-47, 2-chloro-N-[2,2-dimethyl-6-(8-pyridin-4-yl-3,8-diazaspiro[4.5]decane-3-carbonyl)-1,3-dihydro-inden-1-yl]-benzamide] |
| 108 | 100 | O=C(N[C@@H]1CCc2ccc(C(=O)N3CCC4(CC3)CCN(c3ccncc3)CC4)cc21)c1c(Cl)cccc1Cl [Example H-100, 2,6-Dichloro-N-[(1R)-6-(9-pyridin-4-yl-3,9-diazaspiro[5.5]undecane-3-carbonyl)-2,3-dihydro-1H-inden-1-yl]-benzamide] |
| 55 | 96 | O=C(c1cccc2c1CC[C@@H]2N1Cc2cccc(Cl)c2C1=O)N1CCC2(CCN(c3ccncc3)CC2)C1 [Example H-168, 7-Chloro-2-[(1S)-4-(8-pyridin-4-yl-3,8-diazaspiro[4.5]decane-3-carbonyl)-2,3-dihydro-1H-inden-1-yl]-2,3-dihydro-isoindol-1-one] |
| 103 | 98 | O=C(c1ccc2c(c1)CC[C@H]2N1Cc2cccc(Cl)c2C1=O)N1CCC2(CC1)CCN(c1ccncc1)CC2 [Example H-159, 7-Chloro-2-[(1R)-5-(9-pyridin-4-yl-3,9-diazaspiro[5.5]undecane-3-carobnyl)-2,3-dihydro-1H-inden-1-yl]-2,3-dihydro-isoindol-1-one] |
| -4 | 21 | O=C(c1cccc2c1CC[C@H]2NS(=O)(=O)c1ccccc1Cl)N1CCC2(CCN(c3ccncc3)CC2)C1 [Example H-166, 2-Chloro-N-[(1R)-4-(8-pyridin-4-yl-3,8-diazaspiro[4.5]decane-3-carbonyl)-2,3-dihydro-1H-inden-1-yl]-benzenesulfonic acid amide] |
| 102 | 99 | Cc1cc2c(cc1C(=O)N1CCC3(CC1)CCN(c1ccncc1)CC3)[C@H](NC(=O)c1ccccc1Cl)CC2 [Example H-66, 2-Chloro-N-[(1R)-5-methyl-6-(9-pyridin-4-yl-3,9-diazaspiro[5.5]undecane-3-carbonyl)-2,3-dihydro-1H-inden-1-yl]-benzamide] |
| 101 | 100 | O=C(N[C@@H]1CCc2ccc(C(=O)N3CCC4(CCN(c5ccncc5)CC4)C3)cc21)c1cnccc1C(F)(F)F [Example H-115, N-[(1R)-6-(8-Pyridin-4-yl-3,8-diazaspiro[4.5]decane-3-carbonyl)-2,3-dihydro-1H-inden-1-yl]-4-(trifluoromethyl)-pyridine-3-carboxylic acid amide] |
| 103 | 100 | O=C(c1ccc2c(c1)[C@H](NS(=O)(=O)c1c(Cl)cccc1C(F)(F)F)CC2)N1CCC2(CCN(c3ccncc3)CC2)C1 [Example H-149, 2-Chloro-N-[(1R)-6-(8-pyridin-4-yl-3,8-diazaspiro[4.5]decane-3-carbonyl)-2,3-dihydro-1H-inden-1-yl]-6-(trifluoromethyl)-benzenesulfonic acid amide] |
